One data set addresses Motilin receptor (Oryctolagus cuniculus, UniProt A5A4K8). The experiment in a line: Agonist activity at motilin receptor in rabbit smooth muscle assessed as maximal possible tissue contraction. The class given is functional.
For another data set, the system named is Streptococcus pneumoniae. The experiment in a line: Antimicrobial activity against erythromycin-sensitive Streptococcus pneumoniae ATCC 6301. The class given is functional.
The target in data set [1] is T1, hERG (KCNH2) (Homo sapiens, UniProt Q12809). The experiment in a line: Inhibition of human ERG at 30 uM.
Data set [2] concerns the target T1, hERG (KCNH2). The experiment in a line: Inhibition of human ERG at 300 uM.
Data set [3] deals with Voltage-gated inwardly rectifying potassium channel KCNH2 (Homo sapiens, UniProt Q12809). The experiment in a line: Inhibition of human ERG.
For data set [4], the target named is Motilin receptor (Oryctolagus cuniculus) (UniProt A5A4K8). The experiment in a line: Agonist activity at motilin receptor in rabbit smooth muscle assessed as tachyphylaxis at EC90 concentration after 4th dose. The class given is functional.

Molecules are shown by their SMILES. Values after ≈ are worked out from the molar mass of the structure shown.

The text below walks through data of ChEMBL document CHEMBL1777727, “The role of the 4''-hydroxyl on motilin agonist potency in the 9-dihydroerythromycin series” (Bioorg Med Chem Lett, 2011).

Motilin receptor, sequence (A5A4K8 whole entry): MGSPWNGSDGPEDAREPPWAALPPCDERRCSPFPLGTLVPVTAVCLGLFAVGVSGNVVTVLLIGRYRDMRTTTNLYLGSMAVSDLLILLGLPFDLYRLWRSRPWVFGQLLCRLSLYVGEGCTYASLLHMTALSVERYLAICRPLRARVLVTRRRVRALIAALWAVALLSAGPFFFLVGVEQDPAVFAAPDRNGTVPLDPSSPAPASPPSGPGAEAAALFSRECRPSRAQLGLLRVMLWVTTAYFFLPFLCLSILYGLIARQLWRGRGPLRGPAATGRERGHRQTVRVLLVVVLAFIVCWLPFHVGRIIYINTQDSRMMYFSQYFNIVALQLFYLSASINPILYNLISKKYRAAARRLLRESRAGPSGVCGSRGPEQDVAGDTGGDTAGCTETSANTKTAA
Motilin receptor (Oryctolagus cuniculus), sequence (A5A4K8 as listed by the source): as the sequence (A5A4K8 whole entry) above
T1 sequence (Q12809 whole entry): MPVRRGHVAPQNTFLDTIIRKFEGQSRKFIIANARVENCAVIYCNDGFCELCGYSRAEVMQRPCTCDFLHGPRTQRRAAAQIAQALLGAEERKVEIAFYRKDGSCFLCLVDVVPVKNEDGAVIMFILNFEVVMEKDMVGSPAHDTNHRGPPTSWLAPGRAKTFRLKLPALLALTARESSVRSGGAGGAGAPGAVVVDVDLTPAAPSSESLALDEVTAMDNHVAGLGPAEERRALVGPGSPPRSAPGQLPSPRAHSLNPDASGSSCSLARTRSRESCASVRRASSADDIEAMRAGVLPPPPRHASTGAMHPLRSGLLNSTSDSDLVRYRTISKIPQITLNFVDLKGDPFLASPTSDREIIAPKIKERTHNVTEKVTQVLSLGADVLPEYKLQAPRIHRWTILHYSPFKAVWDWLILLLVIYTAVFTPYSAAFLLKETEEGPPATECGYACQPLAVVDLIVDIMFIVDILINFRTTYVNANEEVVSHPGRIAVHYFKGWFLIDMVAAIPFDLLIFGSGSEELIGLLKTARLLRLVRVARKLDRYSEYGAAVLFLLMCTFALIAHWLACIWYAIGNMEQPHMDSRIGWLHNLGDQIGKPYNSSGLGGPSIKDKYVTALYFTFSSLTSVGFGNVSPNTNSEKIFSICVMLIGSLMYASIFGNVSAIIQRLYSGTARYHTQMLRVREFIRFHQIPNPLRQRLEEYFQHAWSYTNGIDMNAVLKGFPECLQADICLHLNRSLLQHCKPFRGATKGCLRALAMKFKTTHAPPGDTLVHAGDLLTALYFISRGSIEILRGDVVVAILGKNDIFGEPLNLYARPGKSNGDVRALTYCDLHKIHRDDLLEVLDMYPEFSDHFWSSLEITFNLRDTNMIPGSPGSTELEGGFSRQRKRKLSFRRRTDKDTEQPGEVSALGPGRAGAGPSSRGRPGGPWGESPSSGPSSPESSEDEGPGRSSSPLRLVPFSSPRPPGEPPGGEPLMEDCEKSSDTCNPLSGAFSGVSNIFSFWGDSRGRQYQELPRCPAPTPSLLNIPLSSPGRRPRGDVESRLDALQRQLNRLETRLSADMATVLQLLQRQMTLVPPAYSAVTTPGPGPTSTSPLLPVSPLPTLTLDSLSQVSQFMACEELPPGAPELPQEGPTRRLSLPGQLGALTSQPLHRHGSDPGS
Voltage-gated inwardly rectifying potassium channel KCNH2, sequence (Q12809 whole entry): as above

Consider `CC[C@H]1OC(=O)[C@H](C)[C@@H](O[C@H]2C[C@@](C)(OC)C[C@H](C)O2)[C@H](C)[C@@H](O[C@@H]2O[C@H](C)C[C@H](N(C)C(C)C)[C@H]2O)[C@](C)(O)C[C@@H](C)[C@H](OCC(=O)NC)[C@H](C)[C@@H](O)[C@]1(C)O`, for which, on Motilin receptor, the EC50 was 17 nM. This molecule also had an MIC in the data set with Streptococcus pneumoniae of 128 µg/mL (≈ 156 µM). The inhibition at 30 µM on hERG (KCNH2) [1] worked out at 57%. Further, the inhibition at 300 µM against hERG (KCNH2) [2] amounted to 97%. This molecule gave an IC50 in data set [3] of 30000 nM.
Regarding `CC[C@H]1OC(=O)[C@H](C)[C@@H](O[C@H]2C[C@@](C)(OC)[C@@H](O)[C@H](C)O2)[C@H](C)[C@@H](O[C@@H]2O[C@H](C)C[C@H](N(C)C(C)C)[C@H]2O)[C@]2(C)CC(C)=C(O2)[C@H](C)C(=O)[C@]1(C)OC`, the Activity in data set [4] was determined as 22%.
Take `CC[C@H]1OC(=O)[C@H](C)[C@@H](O[C@H]2C[C@@](C)(OC)[C@@H](O)[C@H](C)O2)[C@H](C)[C@@H](O[C@@H]2O[C@H](C)C[C@H](N(C)C[C@H](C)O)[C@H]2O)[C@](C)(O)C[C@@H](C)[C@H](O)[C@H](C)[C@@H](O)[C@]1(C)O`: the EC50 on Motilin receptor amounted to 360 nM.
With `CC[C@H]1OC(=O)[C@H](C)[C@@H](O[C@H]2C[C@@](C)(OC)C[C@H](C)O2)[C@H](C)[C@@H](O[C@@H]2O[C@H](C)C[C@H](N(C)C(C)C)[C@H]2O)[C@](C)(O)C[C@@H](C)[C@H](OCC(N)=O)[C@H](C)[C@@H](O)[C@]1(C)O`, on Motilin receptor, the EC50 stood at 36 nM. In addition, in the data set on Streptococcus pneumoniae, the MIC was more than 128 µg/mL. Further, the inhibition at 30 µM against hERG (KCNH2) [1] was determined as 28%. At hERG (KCNH2) [2], at 300 µM the inhibition was 86%.
Consider `CC[C@H]1OC(=O)[C@H](C)[C@@H](O[C@H]2C[C@@](C)(OC)C[C@H](C)O2)[C@H](C)[C@@H](O[C@@H]2O[C@H](C)C[C@H](N(C)CCO)[C@H]2O)[C@](C)(O)C[C@@H](C)[C@H](O)[C@H](C)[C@@H](O)[C@]1(C)O`, for which the EC50 at Motilin receptor was 63 nM. This molecule also registered an MIC with Streptococcus pneumoniae of 2 µg/mL (≈ 2.67 µM). This molecule showed an inhibition at 30 µM at hERG (KCNH2) [1] of 68%. Besides, the Activity in data set [4] is 94%.
In the case of `CC[C@H]1OC(=O)[C@H](C)[C@@H](O[C@H]2C[C@@](C)(OC)CC(C)O2)[C@H](C)[C@@H](O[C@@H]2O[C@H](C)C[C@H](N(C)CC)[C@H]2O)C2(C)CC(C)=C(O2)[C@H](C)[C@@H](O)[C@H]1C` (single isomer, unassigned), the Activity in data set [4] is 9%.
In turn, `CC[C@H]1OC(=O)[C@H](C)[C@@H](O[C@H]2C[C@@](C)(OC)[C@@H](O)[C@H](C)O2)[C@H](C)[C@@H](O[C@@H]2O[C@H](C)C[C@H](N(C)C(C)C)[C@H]2O)[C@](C)(O)C[C@@H](C)[C@H](OCC(N)=O)[C@H](C)[C@@H](O)[C@]1(C)O` returned an inhibition at 300 µM against hERG (KCNH2) [2] of 29%.
Regarding `CC[C@H]1OC(=O)[C@H](C)[C@@H](O[C@H]2C[C@@](C)(OC)C[C@H](C)O2)[C@H](C)[C@@H](O[C@@H]2O[C@H](C)C[C@H](N(C)C3CCC3)[C@H]2O)[C@](C)(O)C[C@@H](C)[C@H](O)[C@H](C)[C@@H](O)[C@]1(C)O`, the EC50 on Motilin receptor came out at 120 nM. The molecule also returned a minimum inhibitory concentration (MIC) against Streptococcus pneumoniae of more than 128 µg/mL. Besides, the inhibition at 30 µM against hERG (KCNH2) [1] is 92%. Moreover, testing at 300 µM on hERG (KCNH2) [2] gave an inhibition of 100%.
For `CC[C@H]1OC(=O)[C@H](C)[C@@H](O[C@H]2C[C@@](C)(OC)[C@@H](O)[C@H](C)O2)[C@H](C)[C@@H](O[C@@H]2O[C@H](C)C[C@H](N(C)C(C)C)[C@H]2O)[C@](C)(O)C[C@@H](C)[C@H](OCC(=O)N(C)C)[C@H](C)[C@@H](O)[C@]1(C)O`, on hERG (KCNH2) [2], at 300 µM the inhibition was 51%.
Consider `CC[C@H]1OC(=O)[C@H](C)[C@@H](O[C@H]2C[C@@](C)(OC)C[C@H](C)O2)[C@H](C)[C@@H](O[C@@H]2O[C@H](C)C[C@H](N(C)CC(C)(C)O)[C@H]2O)[C@](C)(O)C[C@@H](C)[C@H](O)[C@H](C)[C@@H](O)[C@]1(C)O`, for which, at Motilin receptor, the concentration giving a half-maximal response (EC50) was found to be 24 nM. In the data set with Streptococcus pneumoniae, the MIC was found to be 128 µg/mL (≈ 165 µM). In addition, the inhibition at 30 µM against hERG (KCNH2) [1] turned out to be 86%. The same molecule displayed an inhibition at 300 µM against hERG (KCNH2) [2] of 100%.
As to `CC[C@H]1OC(=O)[C@H](C)[C@@H](O[C@H]2C[C@@](C)(OC)[C@@H](O)[C@H](C)O2)[C@H](C)[C@@H](O[C@@H]2O[C@H](C)C[C@H](N(C)CCO)[C@H]2O)[C@](C)(O)C[C@@H](C)[C@H](O)[C@H](C)[C@@H](O)[C@]1(C)O`, at Motilin receptor, the EC50 is 210 nM.
The same measure, in the same setting: the result for `CC[C@H]1OC(=O)[C@H](C)[C@@H](O[C@H]2C[C@@](C)(OC)[C@@H](O)[C@H](C)O2)[C@H](C)[C@@H](O[C@@H]2O[C@H](C)C[C@H](N(C)CC(C)(C)O)[C@H]2O)[C@](C)(O)C[C@@H](C)[C@H](O)[C@H](C)[C@@H](O)[C@]1(C)O` reads 100 nM.
As for `CC[C@H]1OC(=O)[C@H](C)[C@@H](O[C@H]2C[C@@](C)(OC)C[C@H](C)O2)[C@H](C)[C@@H](O[C@@H]2O[C@H](C)C[C@H](N(C)C[C@H](C)O)[C@H]2O)[C@](C)(O)C[C@@H](C)[C@H](O)[C@H](C)[C@@H](O)[C@]1(C)O`, at Motilin receptor, the concentration for a half-maximal effect (EC50) amounted to 140 nM. The MIC with Streptococcus pneumoniae turned out to be 128 µg/mL (≈ 168 µM). Moreover, on hERG (KCNH2) [1], at 30 µM the inhibition was 89%. This molecule also showed an inhibition at 300 µM against hERG (KCNH2) [2] of 100%.
For `CC[C@H]1OC(=O)[C@H](C)[C@@H](O[C@H]2C[C@@](C)(OC)C[C@H](C)O2)[C@H](C)[C@@H](O[C@@H]2O[C@H](C)C[C@H](N(C)C(C)C)[C@H]2O)[C@](C)(O)C[C@@H](C)[C@H](O)[C@H](C)[C@@H](O)[C@]1(C)O`, the EC50 at Motilin receptor is 59 nM. In the data set with Streptococcus pneumoniae, this molecule registered an MIC of 64 µg/mL (≈ 85.6 µM). This molecule gave an inhibition at 30 µM against hERG (KCNH2) [1] of 74%. Besides, the Activity in data set [4] came to 88%.
As to `CC[C@H]1OC(=O)[C@H](C)[C@@H](O[C@H]2C[C@@](C)(OC)[C@@H](O)[C@H](C)O2)[C@H](C)[C@@H](O[C@@H]2O[C@H](C)C[C@H](N(C)C3CCC3)[C@H]2O)[C@](C)(O)C[C@@H](C)[C@H](O)[C@H](C)[C@@H](O)[C@]1(C)O`, the concentration giving a half-maximal response (EC50) on Motilin receptor was 350 nM.
For `CC[C@H]1OC(=O)[C@H](C)[C@@H](O[C@H]2C[C@@](C)(OC)C[C@H](C)O2)[C@H](C)[C@@H](O[C@@H]2O[C@H](C)C[C@H](N(C)C(C)C)[C@H]2O)[C@](C)(O)C[C@@H](C)[C@H](OCC(=O)N(C)C)[C@H](C)[C@@H](O)[C@]1(C)O`, the concentration for a half-maximal effect (EC50) at Motilin receptor stood at 190 nM. This molecule also displayed an MIC with Streptococcus pneumoniae of 128 µg/mL (≈ 154 µM). The molecule also returned an inhibition at 30 µM against hERG (KCNH2) [1] of 50%. In addition, the inhibition at 300 µM on hERG (KCNH2) [2] was 100%.
Consider `CC[C@H]1OC(=O)[C@H](C)[C@@H](O[C@H]2C[C@@](C)(OC)C[C@H](C)O2)[C@H](C)[C@@H](O[C@@H]2O[C@H](C)C[C@H](N(C)CC(=O)NC)[C@H]2O)[C@](C)(O)C[C@@H](C)[C@H](O)[C@H](C)[C@@H](O)[C@]1(C)O`, for which, at Motilin receptor, the concentration giving a half-maximal response (EC50) was more than 5000 nM.

In general, EC50 refers to the concentration at which the effect is half-maximal. The term MIC denotes the lowest concentration that inhibits growth of the organism. Low readings indicate inhibition by little substance, high ones a need for much substance. Usually inhibition stands for the relative decrease from the control value, in per cent. As usually defined, the IC50 is the midpoint of a concentration-inhibition curve. Read a high IC50 as weaker potency.
